The source made the active and inactive calls. The rule behind the calls is not given here.
Experiments:
[1] = growth inhibition of apl2Δ yeast, dose response, selectivity assay for post-Golgi transport modulator project, S. cerevisiae, secondary screen, background strain comparison (AID 789); details: for IC50: S. cerevisiae background (wild-type parent) strain growth inhibition; for growth inhibition: S. cerevisiae apl2Δ mutant growth inhibition, at 25 µM (top of the series)
[2] = test system: S. cerevisiae apl2Δ mutant growth inhibition; experiment: as above

CCOc1ccc(-c2[nH]ncc2Oc2ccccc2OCC)c(O)c1
IC50 [1]: 16 µM
IC50 [2]: 13.4 µM

Cc1ccc(NS(=O)(=O)c2cc(C(=O)N3CCOCC3)ccc2C)cc1
IC50 [1]: > 10 µM
IC50 [2]: > 10 µM (inactive)

CCn1c(=O)[nH]c2cc(C(=O)N3CCN(c4ccccc4)CC3)ccc2c1=O
IC50 [1]: > 10 µM
IC50 [2]: > 10 µM (inactive)

O=C(NCc1ccccc1)NS(=O)(=O)c1ccccc1Cl
IC50 [1]: > 10 µM
IC50 [2]: > 10 µM (inactive)

c1ccc(Nc2cc(-c3ccccc3)nc3ncnn23)cc1
IC50 [1]: > 10 µM
IC50 [2]: > 10 µM (inactive)

O=C(C1COc2ccccc2O1)N1CCN(Cc2ccc3c(c2)OCO3)CC1 (stereo not drawn)
IC50 [1]: > 10 µM
IC50 [2]: > 10 µM (inactive)

CC(C)OC(=O)CSc1nnc(-c2ccc(Cl)cc2)n1N
IC50 [1]: > 10 µM
IC50 [2]: > 10 µM (inactive)

C=C(C)C1CC=C(CN2CCC(C(=O)OCC)CC2)CC1 (stereo not drawn)
IC50 [1]: > 10 µM
IC50 [2]: > 10 µM (inactive)

Cc1ccc(C(=O)NCc2occc2C(=O)O)o1
IC50 [1]: > 10 µM
IC50 [2]: > 10 µM (inactive)

Cc1cccc2cc(C#N)c(NCCCn3ccnc3)nc12
IC50 [1]: > 10 µM
IC50 [2]: > 10 µM (inactive)

O=c1cccc2n1CC1CC2CN(S(=O)(=O)c2ccccc2)C1 (stereo not drawn)
IC50 [1]: > 10 µM
IC50 [2]: > 10 µM (inactive)

Cc1cc(=O)oc2c(CN3CCCCC3)c(O)c(Cl)cc12
IC50 [1]: > 10 µM
IC50 [2]: > 10 µM (inactive)

CCCC(=O)N1CCN(c2ccc(NC(=O)c3cc4ccccc4o3)cc2Cl)CC1
IC50 [1]: 19.2 µM
IC50 [2]: 12.5 µM

CCc1ccc(C(=O)/C=C/c2ccc([N+](=O)[O-])o2)cc1
IC50 [1]: 20.7 µM
IC50 [2]: > 10 µM (inactive)

OC(Cn1ccnc1)c1ccc(Cl)cc1Cl (stereo not drawn)
IC50 [1]: > 10 µM
IC50 [2]: > 10 µM (inactive)

CCCC(=O)Nc1ccc(Cl)c(NC(=O)c2cccnc2Cl)c1
IC50 [1]: > 10 µM
IC50 [2]: > 10 µM (inactive)

CCOC(=O)C1=C(N)N2C(=O)C(C)SC2=C(C(=O)OC)C1c1ccccc1OC (stereo not drawn)
IC50 [1]: 0.163 µM
IC50 [2]: 9.99 µM (inactive)

Clc1ccc(-c2n[nH]c3c2CCC3)c(Cl)c1
IC50 [1]: 0.518 µM
IC50 [2]: 1.12 µM (inactive)

COCCCNc1ccnc2c(Cl)cccc12
IC50 [1]: > 10 µM
IC50 [2]: > 10 µM (inactive)

COc1ccc(C(=O)Nc2ccc(Cl)cc2C(=O)N2CCCC(C)C2)cc1 (stereo not drawn)
IC50 [1]: > 10 µM
IC50 [2]: 22.4 µM

CCc1cc2c(=O)c(Oc3ccccc3F)c(C)oc2c(CN(C)C)c1O
IC50 [1]: > 10 µM
IC50 [2]: > 10 µM (inactive)

Cc1ccc2nc(C)cc(OCC(=O)O)c2c1
IC50 [1]: > 10 µM
IC50 [2]: > 10 µM (inactive)

CCCCSCCCNC(=O)Nc1cccc(OC)c1
IC50 [1]: > 10 µM
IC50 [2]: > 10 µM (inactive)

Cc1cccc(OCC(=O)O/N=C(\N)Cc2ccc(Cl)cc2)c1
IC50 [1]: 10.4 µM
IC50 [2]: > 10 µM (inactive)

Cc1ccc(C(=O)OCn2ncc(Cl)c(Cl)c2=O)cc1
IC50 [1]: 4.62 µM
IC50 [2]: > 10 µM (inactive)

Cc1ccc(S(=O)(=O)N(CC(=O)N2CCC(C(N)=O)CC2)c2cccc(C(F)(F)F)c2)cc1
IC50 [1]: > 10 µM
IC50 [2]: > 10 µM (inactive)

CCOC(=O)Cc1c(C)c2ccc(N(CC)CC)cc2oc1=O
IC50 [1]: > 10 µM
IC50 [2]: > 10 µM (inactive)

CCOC(=O)Cn1cc(C=O)c2ccccc21
IC50 [1]: > 10 µM
IC50 [2]: > 10 µM (inactive)

c1ccc2c(c1)oc1c(Nc3ccc(CN4CCOCC4)cc3)ncnc12
IC50 [1]: > 10 µM
IC50 [2]: > 10 µM (inactive)

COc1ccc2oc(=O)c(-c3nnc(NCc4ccco4)s3)cc2c1
IC50 [1]: > 10 µM
IC50 [2]: > 10 µM (inactive)

O=Cc1cc2ccccc2nc1SCc1ccc(Cl)cc1
IC50 [1]: > 10 µM
IC50 [2]: > 10 µM (inactive)

N#CC1=C(N)NC(SCc2ccc(F)cc2)=C(C#N)C12CCCCC2
IC50 [1]: 16.3 µM
IC50 [2]: 7.78 µM

COc1ccccc1N1CCN(C2CCN(C(=O)c3cc(OC)c(OC)c(OC)c3)CC2)CC1
IC50 [1]: > 10 µM
IC50 [2]: > 10 µM (inactive)

O=C(O)c1cc(-c2ccc(/C=N/Nc3ccc(Cl)cc3)o2)ccc1Cl
IC50 [1]: 16.4 µM
IC50 [2]: 15.5 µM

Cc1ccc(C(C)C)c(OCCCN2CC(C)OC(C)C2)c1 (stereo not drawn)
IC50 [1]: > 10 µM
IC50 [2]: > 10 µM (inactive)

COc1ccc(C2=NC(C(F)(F)F)(C(F)(F)F)c3c(n(C)c(=O)n(C)c3=O)N2)cc1
IC50 [1]: > 10 µM
IC50 [2]: > 10 µM (inactive)

COc1ccccc1N1CCN(Cc2ccccc2F)CC1
IC50 [1]: > 10 µM
IC50 [2]: > 10 µM (inactive)

O=C1c2cccc3c([N+](=O)[O-])ccc(c23)C(=O)N1c1ccc(Cl)cn1
IC50 [1]: 6.08 µM
IC50 [2]: 14.5 µM (inactive)

Cc1nnc(-c2cccc(Br)c2)c2cn(-c3ccccc3Cl)nc12
IC50 [1]: 25.9 µM
IC50 [2]: > 10 µM (inactive)

Cn1c(=O)cc(NCc2ccccc2)[nH]c1=O
IC50 [1]: > 10 µM
IC50 [2]: > 10 µM (inactive)

Cc1cc(C)c2c(c1)/C(=C/C(=O)c1ccc(Br)s1)C(=O)N2
IC50 [1]: 1.42 µM
IC50 [2]: 1.55 µM (inactive)

O=C(NCc1ccc2c(c1)OCO2)c1ccc(-n2cnnn2)cc1
IC50 [1]: > 10 µM
IC50 [2]: > 10 µM (inactive)

N#Cc1nc(COc2ccc(-c3ccccc3)cc2)oc1NCCCN1CCOCC1
IC50 [1]: 15.4 µM
IC50 [2]: 17.2 µM (inactive)

CCN1CCN(c2c(Cl)cccc2NC(=O)c2ccc(Br)o2)CC1
IC50 [1]: > 10 µM
IC50 [2]: > 10 µM (inactive)

Cc1cccc(-n2c(N)c(C(=O)NCCN3CCOCC3)c3nc4ccccc4nc32)c1
IC50 [1]: > 10 µM
IC50 [2]: > 10 µM (inactive)

CCOC(=O)c1cccnc1SCc1cc(=O)n2ccccc2n1
IC50 [1]: > 10 µM
IC50 [2]: > 10 µM (inactive)

CCC(C)(C)NC(=O)CN(C(=O)CCC(=O)Nc1ccccn1)c1ccc(F)c(Cl)c1
IC50 [1]: > 10 µM
IC50 [2]: > 10 µM (inactive)

O=C(O)c1ccc(N2CCCCC2)cc1
IC50 [1]: > 10 µM
IC50 [2]: > 10 µM (inactive)

C/C(=N\N=C(/N)SC1CC(=O)N(c2ccc(Cl)c(Cl)c2)C1=O)c1cccs1 (stereo not drawn)
IC50 [1]: 5.98 µM
IC50 [2]: > 10 µM (inactive)

Nc1cc(N)c(OCC(F)(F)F)cc1OCC(F)(F)F
IC50 [1]: > 10 µM
IC50 [2]: > 10 µM (inactive)

COc1ccc2nc(NCCCNC(=O)c3cc(OC)c(OC)c(OC)c3)c(C#N)cc2c1
IC50 [1]: > 10 µM
IC50 [2]: > 10 µM (inactive)

O=C(NCC(c1cccnc1)N1CCN(c2ccccc2)CC1)c1ccc2c(c1)OCO2 (stereo not drawn)
IC50 [1]: > 10 µM
IC50 [2]: > 10 µM (inactive)

CC(C)Cc1[nH]c(=O)c(C#N)c2c1CCC2
IC50 [1]: > 10 µM
IC50 [2]: > 10 µM (inactive)

CC(C)COC(=O)c1ccc2c(c1O)C(=O)c1ccccc1C2=O
IC50 [1]: > 10 µM
IC50 [2]: > 10 µM (inactive)

CCOC(=O)NC(Nc1ccc(S(N)(=O)=O)cc1)(C(=O)OCC)C(F)(F)F (stereo not drawn)
IC50 [1]: > 10 µM
IC50 [2]: > 10 µM (inactive)

CC1CCCN(CCOCCOc2ccc(Cl)cc2Br)C1 (stereo not drawn)
IC50 [1]: > 10 µM
IC50 [2]: 21.7 µM

COc1cccc(NC(=O)c2ccc(CN3CCN(c4ccccc4)CC3)cc2)c1
IC50 [1]: > 10 µM
IC50 [2]: > 10 µM (inactive)

O=C(N/N=C/c1ccc([N+](=O)[O-])o1)c1cc(-c2cccc(Br)c2)nc2ccccc12
growth inhibition [1]: 42.1% (inactive)
IC50 [1]: 4.65 µM

C=CCc1ccc(OCCCCN2CC(C)OC(C)C2)c(OC)c1 (stereo not drawn)
growth inhibition [1]: 34.1% (inactive)
IC50 [1]: > 10 µM

— PubChem BioAssay AID789 (SRMLSC, 2007)
